Results from US11186817B2, “Chemically defined cell culture media additive” (IUCF-HYU (INDUSTRY-UNIVERSITY COOPERATION FOUNDATION …, priority 2014, dated 2021).

Test system: CHO DG44 cell line
Assay: Effective concentration range of THF: suspension growth of CHO DG44 in HY-CDM media
Assay type: cell-based, Chinese hamster
Details: HY-CDM
From the text: 1. Cell line and media: CHO DG44 cell line was used as a DHFR-deficient cell line. The cell line was passaged 80 times or more and suspension adapted in HY-CDM (in-house) media as chemically defined media. The suspension-adapted cell line was used to evaluate the influence of tetrahydrofolate (THF) and dihydrofolate (DHF) and the growth characteristics in commercial chemically defined media. The HY-CDM media were composed of chemically defined components only. Each HY-CDM medium further included a growth factor. HY-CDM media used in Examples 1, 3, and 4 were free of an animal derived lipid mixture, and HY-CDM media used in Example 2 were supplemented with cod liver oil.
2. Cell suspension culture: The cell line was inoculated at a density of 4×10^5 cells/ml and cultured in an Erlenmeyer flask with a 30 ml/125 ml working volume on an orbital shaker at 120 rpm under humidified conditions at 37° C. and 5% CO2. Before inoculation, the cells were centrifuged at 1,000 rpm (×162 g) for 5 min, the supernatant was discarded, and the remaining cells were dispersed into single cells in the heated medium. The cells were passaged three times to minimize the influence of the remaining medium under the experimental conditions. The subcultured cells were evaluated.
3. Density of live cells: The density of live cells was analyzed using a hemocytometer (Neubauer improved bright-line, Marienfeld, Germany), an inverted microscope (CK30, Olympus, Japan), and trypan blue dye exclusion.
In this example, the effective concentration range of THF inducing the suspension growth of the CHO DG44 cell line in the HY-CDM media was evaluated with varying amounts of THF.
To this end, the CHO DG44 cell line was passaged three time at a THF concentration of 0-480 mg/L, and their maximum cell densities and doubling times were measured.

Substance: tetrahydrofolate [THF]
- Doubling time, Average (THF 0.0016 mg/L): 24.7 h
- Doubling time, Passage 1 (THF 0.0016 mg/L): 26.8 h
- Doubling time, Passage 2 (THF 0.0016 mg/L): 27.2 h
- Doubling time, Passage 3 (THF 0.0016 mg/L): 20.3 h
- Maximum cell density, Average (THF 0.0016 mg/L): 18.9 ×10^5 cells/ml
- Maximum cell density, Passage 1 (THF 0.0016 mg/L): 19.8 ×10^5 cells/ml
- Maximum cell density, Passage 2 (THF 0.0016 mg/L): 18.2 ×10^5 cells/ml
- Maximum cell density, Passage 3 (THF 0.0016 mg/L): 18.8 ×10^5 cells/ml
- Doubling time, Average (THF 0.0031 mg/L): 24.9 h
- Doubling time, Passage 1 (THF 0.0031 mg/L): 27.1 h
- Doubling time, Passage 2 (THF 0.0031 mg/L): 27.1 h
- Doubling time, Passage 3 (THF 0.0031 mg/L): 20.6 h
- Maximum cell density, Average (THF 0.0031 mg/L): 19.8 ×10^5 cells/ml
- Maximum cell density, Passage 1 (THF 0.0031 mg/L): 20.6 ×10^5 cells/ml
- Maximum cell density, Passage 2 (THF 0.0031 mg/L): 18.2 ×10^5 cells/ml
- Maximum cell density, Passage 3 (THF 0.0031 mg/L): 20.5 ×10^5 cells/ml
- Doubling time, Average (THF 0.0063 mg/L): 23.6 h
- Doubling time, Passage 1 (THF 0.0063 mg/L): 26.4 h
- Doubling time, Passage 2 (THF 0.0063 mg/L): 24.3 h
- Doubling time, Passage 3 (THF 0.0063 mg/L): 20.1 h
- Maximum cell density, Average (THF 0.0063 mg/L): 21.3 ×10^5 cells/ml
- Maximum cell density, Passage 1 (THF 0.0063 mg/L): 21.4 ×10^5 cells/ml
- Maximum cell density, Passage 2 (THF 0.0063 mg/L): 21.2 ×10^5 cells/ml
- Maximum cell density, Passage 3 (THF 0.0063 mg/L): 21.3 ×10^5 cells/ml
- Doubling time, Average (THF 0.0125 mg/L): 23.5 h
- Doubling time, Passage 1 (THF 0.0125 mg/L): 24.6 h
- Doubling time, Passage 2 (THF 0.0125 mg/L): 25.5 h
- Doubling time, Passage 3 (THF 0.0125 mg/L): 20.3 h
- Maximum cell density, Average (THF 0.0125 mg/L): 21.5 ×10^5 cells/ml
- Maximum cell density, Passage 1 (THF 0.0125 mg/L): 23.6 ×10^5 cells/ml
- Maximum cell density, Passage 2 (THF 0.0125 mg/L): 18.8 ×10^5 cells/ml
- Maximum cell density, Passage 3 (THF 0.0125 mg/L): 22.0 ×10^5 cells/ml
- Doubling time, Average (THF 0.0250 mg/L): 22.5 h
- Doubling time, Passage 1 (THF 0.0250 mg/L): 25.8 h
- Doubling time, Passage 2 (THF 0.0250 mg/L): 23.2 h
- Doubling time, Passage 3 (THF 0.0250 mg/L): 18.6 h
- Maximum cell density, Average (THF 0.0250 mg/L): 20.5 ×10^5 cells/ml
- Maximum cell density, Passage 1 (THF 0.0250 mg/L): 22.4 ×10^5 cells/ml
- Maximum cell density, Passage 2 (THF 0.0250 mg/L): 18.0 ×10^5 cells/ml
- Maximum cell density, Passage 3 (THF 0.0250 mg/L): 21.0 ×10^5 cells/ml
- Doubling time, Average (THF 0.0500 mg/L): 20.9 h
- Doubling time, Passage 1 (THF 0.0500 mg/L): 22.8 h
- Doubling time, Passage 2 (THF 0.0500 mg/L): 21.7 h
- Doubling time, Passage 3 (THF 0.0500 mg/L): 18.2 h
- Maximum cell density, Average (THF 0.0500 mg/L): 20.5 ×10^5 cells/ml
- Maximum cell density, Passage 1 (THF 0.0500 mg/L): 22.0 ×10^5 cells/ml
- Maximum cell density, Passage 2 (THF 0.0500 mg/L): 18.5 ×10^5 cells/ml
- Maximum cell density, Passage 3 (THF 0.0500 mg/L): 21.0 ×10^5 cells/ml
- Doubling time, Average (THF 0.1000 mg/L): 21.2 h
- Doubling time, Passage 1 (THF 0.1000 mg/L): 22.7 h
- Doubling time, Passage 2 (THF 0.1000 mg/L): 22.7 h
- Doubling time, Passage 3 (THF 0.1000 mg/L): 18.2 h
- Maximum cell density, Average (THF 0.1000 mg/L): 24.8 ×10^5 cells/ml
- Maximum cell density, Passage 1 (THF 0.1000 mg/L): 27.6 ×10^5 cells/ml
- Maximum cell density, Passage 2 (THF 0.1000 mg/L): 21.8 ×10^5 cells/ml
- Maximum cell density, Passage 3 (THF 0.1000 mg/L): 24.9 ×10^5 cells/ml
- Doubling time, Average (THF 0.2000 mg/L): 20.8 h
- Doubling time, Passage 1 (THF 0.2000 mg/L): 22.7 h
- Doubling time, Passage 2 (THF 0.2000 mg/L): 21.4 h
- Doubling time, Passage 3 (THF 0.2000 mg/L): 18.3 h
- Maximum cell density, Average (THF 0.2000 mg/L): 25.9 ×10^5 cells/ml
- Maximum cell density, Passage 1 (THF 0.2000 mg/L): 26.6 ×10^5 cells/ml
- Maximum cell density, Passage 2 (THF 0.2000 mg/L): 25.0 ×10^5 cells/ml
- Maximum cell density, Passage 3 (THF 0.2000 mg/L): 26.1 ×10^5 cells/ml
- Cell density increase (THF 0.4 mg/L): about 56%
- Doubling time, Average (THF 0.4000 mg/L): 22.1 h
- Doubling time, Passage 1 (THF 0.4000 mg/L): 22.7 h
